# Experimental data reported in the OPERA property sets (Mansouri et al. 2018).
row,Structure (SMILES),logP
1,N#Cc1ncc(Cl)nc1C#N,0.95
2,Clc1ncccn1,0.36
3,Cc1ccnnc1,-0.32
4,CN(C)c1ccncn1,0.58
5,Nc1cnc(Cl)cn1,0.67
6,CC(=O)Nc1ccncn1,0.03
7,Nc1ccncn1,-0.25
8,COc1cccnn1,0.08
9,COC(=O)c1ccoc1,1.28
10,CCOc1ncccn1,0.74
11,N#Cc1ncccn1,-0.31
12,COC(=O)c1ccnnc1,-0.27
13,Fc1cncc(F)n1,0.74
14,NC(=O)c1cccnn1,-0.73
15,COC(=O)c1ccncn1,-0.27
16,NC(=O)c1ccncn1,-0.68
17,Cc1cncnc1,0.01
18,CCCCc1nc(C#N)c(C#N)nc1C,2.3
19,COc1ccncn1,0.54
20,CCOc1cncnc1,0.56
21,CC(=O)Nc1cncnc1,-0.22
22,CSc1ncccn1,1.01

row,Structure (SMILES),logP
1,Cc1ncccn1,-0.05
2,CCOC(=O)c1ncccn1,-0.31
3,NC(=O)c1ccnnc1,-0.96
4,CCc1nccnc1OC,1.8
5,COc1cncnc1,0.07
6,CCOc1nccnc1C,1.82
7,N#Cc1ccnnc1,-0.63
8,NC(=O)c1cncnc1,-0.92
9,NC(=O)c1ncccn1,-1.2
10,COC(=O)c1cncnc1,0.03
11,Nc1ccnnc1,-0.53
12,CN(C)c1cncnc1,0.46
13,CCOC(=O)c1cncnc1,0.52
14,Clc1cccnn1,0.1
15,COC(=O)c1cccnn1,-0.43
16,Fc1ncccn1,0.02
17,Cc1cccnn1,-0.35
18,CCOC(=O)c1ccnnc1,0.23
19,CCOc1cccnn1,0.63
20,COC(=O)c1ncccn1,-0.71
21,COc1ccnnc1,-0.31
22,CN(C)c1ncccn1,1.07
